Assay results from patent US20240228504A1, “SUBSTITUTED TRICYCLIC AMIDES, ANALOGUES THEREOF, AND METHODS USING SAME” (Arbutus Biopharma Corporation, priority 2020, published 2024).
pEC50: −log10 of the molar value.

system: HBV rcDNA in HepDE19 cells; test: HepDE19 assay with bDNA quantitation of HBV rcDNA; assay type: cell-based, hepatitis B virus; settings: HepDE19 assay, inhibition of rcDNA formation, bDNA quantitation; read-out: DE-19bDNA EC50

First: CN(C(=O)c1cc2c(F)cccc2[nH]1)C1COCc2[nH]c(=O)c3cc(F)c(F)cc3c21 (single isomer, unassigned) [Compound 23, N-(8,9-Difluoro-6-oxo-1,4,5,6-tetrahydro-2H-pyrano[3,4-c]isoquinolin-1-yl)-4-fluoro-N-methyl-1H-indole-2-carboxamide]
Second: CN(C(=O)c1cc2c(F)c(F)ccc2[nH]1)C1COCc2[nH]c(=O)c3cc(F)c(F)cc3c21 (single isomer, unassigned) [Compound 45, N-(8,9-Difluoro-6-oxo-1,4,5,6-tetrahydro-2H-pyrano[3,4-c]isoquinolin-1-yl)-4,5-difluoro-N-methyl-1H-indole-2-carboxamide]
The pEC50 of the first is 1.16 log units lower: 5.35 for the first, 6.51 for the second.

CN(C(=O)c1cc2c(F)cccc2[nH]1)C1COCc2[nH]c(=O)c3cc(F)c(F)cc3c21 (single isomer, unassigned) [Compound 24, N-(8,9-Difluoro-6-oxo-1,4,5,6-tetrahydro-2H-pyrano[3,4-c]isoquinolin-1-yl)-4-fluoro-N-methyl-1H-indole-2-carboxamide] and CN(C(=O)c1cc2c(F)c(F)ccc2[nH]1)C1COCc2[nH]c(=O)c3cc(F)c(F)cc3c21 (single isomer, unassigned) [Compound 46, N-(8,9-Difluoro-6-oxo-1,4,5,6-tetrahydro-2H-pyrano[3,4-c]isoquinolin-1-yl)-4,5-difluoro-N-methyl-1H-indole-2-carboxamide] are within 0.2 log units of each other in pEC50: 8.40 for the first, 8.30 for the second.

Compared with CN(C(=O)c1cc2ccc(F)cc2[nH]1)C1COCc2[nH]c(=O)c3cc(F)c(F)cc3c21 (single isomer, unassigned) [Compound 25, N-(8,9-Difluoro-6-oxo-1,4,5,6-tetrahydro-2H-pyrano[3,4-c]isoquinolin-1-yl)-6-fluoro-N-methyl-1H-indole-2-carboxamide], CN(C(=O)c1cc2cc(F)ccc2[nH]1)C1COCc2[nH]c(=O)c3cc(F)c(F)cc3c21 (single isomer, unassigned) [Compound 27, N-(8,9-Difluoro-6-oxo-1,4,5,6-tetrahydro-2H-pyrano[3,4-c]isoquinolin-1-yl)-5-fluoro-N-methyl-1H-indole-2-carboxamide] is 0.34 log units higher in pEC50: 6.09 for the first, 6.43 for the second.

Compared with CN(C(=O)c1cc2ccc(F)cc2[nH]1)C1COCc2[nH]c(=O)c3cc(F)c(F)cc3c21 (single isomer, unassigned) [Compound 26, N-(8,9-Difluoro-6-oxo-1,4,5,6-tetrahydro-2H-pyrano[3,4-c]isoquinolin-1-yl)-6-fluoro-N-methyl-1H-indole-2-carboxamide], CN(C(=O)c1cc2cc(F)ccc2[nH]1)C1COCc2[nH]c(=O)c3cc(F)c(F)cc3c21 (single isomer, unassigned) [Compound 28, N-(8,9-Difluoro-6-oxo-1,4,5,6-tetrahydro-2H-pyrano[3,4-c]isoquinolin-1-yl)-5-fluoro-N-methyl-1H-indole-2-carboxamide] is 0.40 log units higher in pEC50: 8.00 for the first, 8.40 for the second.

CN(C(=O)c1cc2cc(F)ccc2[nH]1)C1COCc2[nH]c(=O)c3cc(F)ccc3c21 (single isomer, unassigned) [Compound 29, 5-Fluoro-N-(8-fluoro-6-oxo-1,4,5,6-tetrahydro-2H-pyrano[3,4-c]isoquinolin-1-yl)-N-methyl-1H-indole-2-carboxamide] and CN(C(=O)c1cc2ccc(F)cc2[nH]1)C1COCc2[nH]c(=O)c3cc(F)ccc3c21 (single isomer, unassigned) [Compound 31, 6-Fluoro-N-(8-fluoro-6-oxo-1,4,5,6-tetrahydro-2H-pyrano[3,4-c]isoquinolin-1-yl)-N-methyl-1H-indole-2-carboxamide] are within 0.2 log units of each other in pEC50: 5.82 for the first, 5.92 for the second.

Compared with CN(C(=O)c1cc2cc(F)ccc2[nH]1)C1COCc2[nH]c(=O)c3cc(F)ccc3c21 (single isomer, unassigned) [Compound 30, 5-Fluoro-N-(8-fluoro-6-oxo-1,4,5,6-tetrahydro-2H-pyrano[3,4-c]isoquinolin-1-yl)-N-methyl-1H-indole-2-carboxamide], CN(C(=O)c1cc2ccc(F)cc2[nH]1)C1COCc2[nH]c(=O)c3cc(F)ccc3c21 (single isomer, unassigned) [Compound 32, 6-Fluoro-N-(8-fluoro-6-oxo-1,4,5,6-tetrahydro-2H-pyrano[3,4-c]isoquinolin-1-yl)-N-methyl-1H-indole-2-carboxamide] is 0.30 log units lower in pEC50: 8.00 for the first, 7.70 for the second.

First: CN(C(=O)c1cc2cccc(F)c2[nH]1)C1COCc2[nH]c(=O)c3cc(F)ccc3c21 (single isomer, unassigned) [Compound 33, 7-Fluoro-N-(8-fluoro-6-oxo-1,4,5,6-tetrahydro-2H-pyrano[3,4-c]isoquinolin-1-yl)-N-methyl-1H-indole-2-carboxamide]
Second: CN(C(=O)c1cc2cccc(F)c2[nH]1)C1COCc2[nH]c(=O)c3cc(F)c(F)cc3c21 (single isomer, unassigned) [Compound 39, N-(8,9-Difluoro-6-oxo-1,4,5,6-tetrahydro-2H-pyrano[3,4-c]isoquinolin-1-yl)-7-fluoro-N-methyl-1H-indole-2-carboxamide]
The pEC50 of the first is 0.37 log units lower: 5.74 for the first, 6.11 for the second. The second is the more potent here.

Going from CN(C(=O)c1cc2cccc(F)c2[nH]1)C1COCc2[nH]c(=O)c3cc(F)ccc3c21 (single isomer, unassigned) [Compound 34, 7-Fluoro-N-(8-fluoro-6-oxo-1,4,5,6-tetrahydro-2H-pyrano[3,4-c]isoquinolin-1-yl)-N-methyl-1H-indole-2-carboxamide] to CN(C(=O)c1cc2cccc(F)c2[nH]1)C1COCc2[nH]c(=O)c3cc(F)c(F)cc3c21 (single isomer, unassigned) [Compound 40, N-(8,9-Difluoro-6-oxo-1,4,5,6-tetrahydro-2H-pyrano[3,4-c]isoquinolin-1-yl)-7-fluoro-N-methyl-1H-indole-2-carboxamide], the pEC50 rises from 7.52 to 8.00 (0.48 log units). The second is the more potent here.

Compared with CN(C(=O)c1cc2c(F)cc(F)cc2[nH]1)C1COCc2[nH]c(=O)c3cc(F)ccc3c21 (single isomer, unassigned) [Compound 35, 4,6-Difluoro-N-(8-fluoro-6-oxo-1,4,5,6-tetrahydro-2H-pyrano[3,4-c]isoquinolin-1-yl)-N-methyl-1H-indole-2-carboxamide], CN(C(=O)c1cc2c(F)c(F)ccc2[nH]1)C1COCc2[nH]c(=O)c3cc(F)ccc3c21 (single isomer, unassigned) [Compound 37, 4,5-Difluoro-N-(8-fluoro-6-oxo-1,4,5,6-tetrahydro-2H-pyrano[3,4-c]isoquinolin-1-yl)-N-methyl-1H-indole-2-carboxamide] is 0.30 log units higher in pEC50: 5.85 for the first, 6.15 for the second.

First: CN(C(=O)c1cc2c(F)cc(F)cc2[nH]1)C1COCc2[nH]c(=O)c3cc(F)ccc3c21 (single isomer, unassigned) [Compound 36, 4,6-Difluoro-N-(8-fluoro-6-oxo-1,4,5,6-tetrahydro-2H-pyrano[3,4-c]isoquinolin-1-yl)-N-methyl-1H-indole-2-carboxamide]
Second: CN(C(=O)c1cc2c(F)c(F)ccc2[nH]1)C1COCc2[nH]c(=O)c3cc(F)ccc3c21 (single isomer, unassigned) [Compound 38, 4,5-Difluoro-N-(8-fluoro-6-oxo-1,4,5,6-tetrahydro-2H-pyrano[3,4-c]isoquinolin-1-yl)-N-methyl-1H-indole-2-carboxamide]
The pEC50 of the first is 0.30 log units lower: 7.70 for the first, 8.00 for the second.

CN(C(=O)c1cc2c(F)cc(F)cc2[nH]1)C1COCc2[nH]c(=O)c3cc(F)c(F)cc3c21 (single isomer, unassigned) [Compound 43, N-(8,9-Difluoro-6-oxo-1,4,5,6-tetrahydro-2H-pyrano[3,4-c]isoquinolin-1-yl)-4,6-difluoro-N-methyl-1H-indole-2-carboxamide] and CN(C(=O)c1cc2cc(F)c(F)cc2[nH]1)C1COCc2[nH]c(=O)c3cc(F)ccc3c21 (single isomer, unassigned) [Compound 49, 5,6-Difluoro-N-(8-fluoro-6-oxo-1,4,5,6-tetrahydro-2H-pyrano[3,4-c]isoquinolin-1-yl)-N-methyl-1H-indole-2-carboxamide] are within 0.2 log units of each other in pEC50: 5.74 for the first, 5.68 for the second.

CN(C(=O)c1cc2c(F)cc(F)cc2[nH]1)C1COCc2[nH]c(=O)c3cc(F)c(F)cc3c21 (single isomer, unassigned) [Compound 44, N-(8,9-Difluoro-6-oxo-1,4,5,6-tetrahydro-2H-pyrano[3,4-c]isoquinolin-1-yl)-4,6-difluoro-N-methyl-1H-indole-2-carboxamide] and CN(C(=O)c1cc2cc(F)c(F)cc2[nH]1)C1COCc2[nH]c(=O)c3cc(F)ccc3c21 (single isomer, unassigned) [Compound 50, 5,6-Difluoro-N-(8-fluoro-6-oxo-1,4,5,6-tetrahydro-2H-pyrano[3,4-c]isoquinolin-1-yl)-N-methyl-1H-indole-2-carboxamide] are the same in pEC50: 8.00 for the first, 8.00 for the second.

Compared with CN(C(=O)c1cc2c([nH]1)CCC(F)(F)C2)C1COCc2[nH]c(=O)c3cc(F)c(F)cc3c21 (single isomer, unassigned) [Compound 47, N-(8,9-Difluoro-6-oxo-1,4,5,6-tetrahydro-2H-pyrano[3,4-c]isoquinolin-1-yl)-5,5-difluoro-N-methyl-4,5,6,7-tetrahydro-1H-indole-2-carboxamide], CN(C(=O)c1cc2ccccc2[nH]1)C1CNCc2[nH]c(=O)c3cc(F)c(F)cc3c21 (single isomer, unassigned) [Compound 54, N-(8,9-Difluoro-6-oxo-1,2,3,4,5,6-hexahydrobenzo[c][1,7]naphthyridin-1-yl)-N-methyl-1H-indole-2-carboxamide] is 1.63 log units lower in pEC50: 7.70 for the first, 6.07 for the second. The first is the more potent here.

Going from CN(C(=O)c1cc2c([nH]1)CCC(F)(F)C2)C1COCc2[nH]c(=O)c3cc(F)c(F)cc3c21 (single isomer, unassigned) [Compound 48, N-(8,9-Difluoro-6-oxo-1,4,5,6-tetrahydro-2H-pyrano[3,4-c]isoquinolin-1-yl)-5,5-difluoro-N-methyl-4,5,6,7-tetrahydro-1H-indole-2-carboxamide] to CN(C(=O)c1cc2ccccc2[nH]1)C1CNCc2[nH]c(=O)c3cc(F)c(F)cc3c21 (single isomer, unassigned) [Compound 55, N-(8,9-Difluoro-6-oxo-1,2,3,4,5,6-hexahydrobenzo[c][1,7]naphthyridin-1-yl)-N-methyl-1H-indole-2-carboxamide], the pEC50 rises from 6.11 to 8.00 (1.89 log units). The second is the more potent here.
